In brackets after ≈: the same amount, converted by molar mass. Like-named read-outs stand apart in the source and are kept apart here.
Legend:
[1] = tested on: Aspergillus versicolor (ATCC 11730); assay: Antifungal bioassay (MIC/MFC); assay type: cell-based; conditions: ATCC11730, A.v. (A. versicolor)
Outline: (§1)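 Duplicate runs per organism.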

[2] = tested on: Trichoderma viride (IAM 5061); assay: Antifungal bioassay (MIC/MFC); assay type: cell-based; conditions: T.v. (T. viride)
Outline: as §1

[3] = tested on: P. ochrochloron; assay: Antifungal bioassay (MIC/MFC); assay type: cell-based; conditions: for MFC: P.o. (P. ochrochloron); for MIC: P.o. (P. ochrochloron; text: P. ochramensis)
Outline: as §1

[4] = tested on: A. ochraceus; assay: Antifungal bioassay (MIC/MFC); assay type: cell-based; conditions: A.o. (A. ochraceus)
Outline: as §1

[5] = tested on: Penicillium funiculosum (ATCC 36839); assay: Antifungal bioassay (MIC/MFC); assay type: cell-based; conditions: Talaromyces funiculosus, ATCC36839; P.f. (P. funiculosum)
Outline: as §1

[6] = tested on: Aspergillus niger (ATCC 6275); assay: Antifungal bioassay (MIC/MFC); assay type: cell-based; conditions: ATCC6275, A.n. (A. niger)
Outline: as §1

[7] = tested on: Aspergillus fumigatus (ATCC 1022); assay: Antifungal bioassay (MIC/MFC); assay type: cell-based; conditions: ATCC1022, A.f. (A. fumigatus)
Outline: as §1

[8] = tested on: M. flavus; assay: Antibacterial microdilution (MIC/MBC); assay type: cell-based; conditions: Micrococcus flavus; M.f. (M. flavus)
Outline: (§2)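 Read-out: lowest concentration preventing growth (MIC) and lowest concentration killing the bacteria (MBC). Method was a modified microdilution, with streptomycin and ampicillin included for reference.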

[9] = tested on: Salmonella typhimurium (ATCC 13311); assay: Antibacterial microdilution (MIC/MBC); assay type: cell-based; conditions: S.t. (S. typhimurium)
Outline: as §2

[10] = tested on: Staphylococcus aureus (ATCC 6538); assay: Antibacterial microdilution (MIC/MBC); assay type: cell-based; conditions: S.a. (S. aureus)
Outline: as §2

[11] = tested on: Escherichia coli (ATCC 35210); assay: Antibacterial microdilution (MIC/MBC); assay type: cell-based; conditions: E. coli
Outline: as §2

[12] = tested on: Bacillus cereus (clinical isolate); assay: Antibacterial microdilution (MIC/MBC); assay type: cell-based; conditions: B.c. (B. cereus)
Outline: as §2

[13] = tested on: Listeria monocytogenes (NCTC 7973); assay: Antibacterial microdilution (MIC/MBC); assay type: cell-based; conditions: Listeria monocytogenes, NCTC7973, L.m. (L. monocytogenes); for MIC: read-out: MIC
Outline: as §2

[14] = tested on: Enterobacter cloacae (clinical isolate); assay: Antibacterial microdilution (MIC/MBC); assay type: cell-based; conditions: Enterobacter cloacae, En.cl (En. cloacae); for MIC: read-out: MIC
Outline: as §2

[15] = tested on: P. aeruginosa; assay: Antibacterial microdilution (MIC/MBC); assay type: cell-based; conditions: Pseudomonas aeruginosa, P.a. (P. aeruginosa); for MIC: read-out: MIC
Outline: as §2

[16] = tested on: Penicillium verrucosum var. cyclopium (food isolate); assay: Antifungal bioassay (MIC/MFC); assay type: cell-based
[17] = Trichoderma viride, IAM5061, read-out: MIC
[18] = Penicillium ochrochloron, read-out: MIC
[19] = Aspergillus ochraceus, read-out: MIC
[20] = Salmonella enterica, read-out: MIC
[21] = Staphylococcus aureus, ATCC6538
[22] = Staphylococcus aureus, ATCC6538, read-out: MIC
[23] = Escherichia coli, ATCC35210, read-out: MIC

| SMILES | melting point | MFC [1] | MIC [1] | MFC ([2]; Trichoderma viride, IAM5061) | MIC [2, 17] | MFC ([3]; Penicillium ochrochloron) | MIC [3, 18] | MFC ([4]; Aspergillus ochraceus) | MFC [5] | MIC [5] | MFC [6] | MIC [6] | MFC [7] | MIC [7] | MBC [8] | MIC [8] | MBC ([9]; Salmonella enterica) | MIC [9, 20] | MBC [10, 21] | MIC [10, 22] | further results |
| --- | --- | --- | --- | --- | --- | --- | --- | --- | --- | --- | --- | --- | --- | --- | --- | --- | --- | --- | --- | --- | --- |
| COC(=O)c1[nH]c2ccc(F)cc2c1/C=C1\SC(=S)N(CCCC(=O)O)C1=O [Compound 9, (Z)-4-(5-((5-fluoro-2-(methoxycarbonyl)-1H-indol-3-yl)methylene)-4-oxo-2-thioxothiazolidin-3-yl)butanoic acid] | 192 to 193 °C | 30 ± 10 µg/mL (≈ 71 µM) | 15 ± 3 µg/mL (≈ 35.5 µM) | 15 ± 3 µg/mL (≈ 35.5 µM) | 8 µg/mL (≈ 18.9 µM) | 30 ± 10 µg/mL (≈ 71 µM) | 15 ± 3 µg/mL (≈ 35.5 µM) | 8 ± 0.6 µg/mL (≈ 18.9 µM) | 30 ± 10 µg/mL (≈ 71 µM) | 15 ± 3 µg/mL (≈ 35.5 µM) | 30 ± 10 µg/mL (≈ 71 µM) | 15 ± 3 µg/mL (≈ 35.5 µM) | 120 ± 40 µg/mL (≈ 284 µM) | 90 ± 3 µg/mL (≈ 213 µM) | 60 ± 6 µg/mL (≈ 142 µM) | 30 ± 10 µg/mL (≈ 71 µM) | 60 ± 6 µg/mL (≈ 142 µM) | 30 ± 10 µg/mL (≈ 71 µM) | 60 ± 6 µg/mL (≈ 142 µM) | 30 ± 10 µg/mL (≈ 71 µM) | MIC [2]: 8 ± 0.6 µg/mL (≈ 18.9 µM); MIC [4]: 4 ± 1 µg/mL (≈ 9.47 µM); MIC [4, 19]: 4 µg/mL (≈ 9.47 µM); MBC ([11]; Escherichia coli, ATCC35210): 60 ± 6 µg/mL (≈ 142 µM); MIC [11, 23]: 30 ± 10 µg/mL (≈ 71 µM); MBC ([12]; Bacillus cereus): 60 ± 6 µg/mL (≈ 142 µM); MIC ([12]; Bacillus cereus, read-out: MIC): 30 ± 10 µg/mL (≈ 71 µM); MBC [13]: 60 ± 6 µg/mL (≈ 142 µM); MIC [13]: 30 ± 10 µg/mL (≈ 71 µM); MBC [14]: 60 ± 6 µg/mL (≈ 142 µM); MIC [14]: 30 ± 10 µg/mL (≈ 71 µM); MBC [15]: 60 ± 6 µg/mL (≈ 142 µM); MIC [15]: 30 ± 10 µg/mL (≈ 71 µM); MFC [16]: 15 ± 3 µg/mL (≈ 35.5 µM); MIC [16]: 22 ± 5 µg/mL (≈ 52.1 µM) |
| COC(=O)c1[nH]c2ccccc2c1/C=C1\SC(=S)N(c2ccc(C(=O)O)cc2)C1=O [Compound 2, (Z)-4-(5-((2-(methoxycarbonyl)-1H-indol-3-yl)methylene)-4-oxo-2-thioxothiazolidin-3-yl)benzoic acid] | 294 to 295 °C | 30 ± 10 µg/mL (≈ 68.4 µM) | 15 ± 3 µg/mL (≈ 34.2 µM) | 15 ± 3 µg/mL (≈ 34.2 µM) | 8 ± 0.6 µg/mL (≈ 18.2 µM) | 30 ± 10 µg/mL (≈ 68.4 µM) | 15 ± 3 µg/mL (≈ 34.2 µM) | 15 ± 3 µg/mL (≈ 34.2 µM) | 30 ± 10 µg/mL (≈ 68.4 µM) | 15 ± 3 µg/mL (≈ 34.2 µM) | 30 ± 10 µg/mL (≈ 68.4 µM) | 22 ± 5 µg/mL (≈ 50.2 µM) | 60 ± 6 µg/mL (≈ 137 µM) | 30 ± 10 µg/mL (≈ 68.4 µM) | 30 ± 10 µg/mL (≈ 68.4 µM) | 22 ± 5 µg/mL (≈ 50.2 µM) | 30 ± 10 µg/mL (≈ 68.4 µM) | 22 ± 5 µg/mL (≈ 50.2 µM) | 30 ± 10 µg/mL (≈ 68.4 µM) | 15 µg/mL (≈ 34.2 µM) | MIC [10]: 15 ± 9 µg/mL (≈ 34.2 µM); MBC ([11]; Escherichia coli, ATCC35210): 30 ± 10 µg/mL (≈ 68.4 µM); MIC [11, 23]: 22 ± 5 µg/mL (≈ 50.2 µM); MIC [12]: 15 ± 9 µg/mL (≈ 34.2 µM); MBC ([12]; Bacillus cereus): 30 ± 10 µg/mL (≈ 68.4 µM); MIC ([12]; Bacillus cereus, read-out: MIC): 15 µg/mL (≈ 34.2 µM); MBC [13]: 60 ± 6 µg/mL (≈ 137 µM); MIC [13]: 30 ± 10 µg/mL (≈ 68.4 µM); MBC [14]: 30 ± 10 µg/mL (≈ 68.4 µM); MIC [14]: 15 ± 9 µg/mL (≈ 34.2 µM); MBC [15]: 60 ± 6 µg/mL (≈ 137 µM); MIC [15]: 30 ± 10 µg/mL (≈ 68.4 µM); MFC [16]: 60 ± 6 µg/mL (≈ 137 µM); MIC [16]: 30 ± 10 µg/mL (≈ 68.4 µM) |
| COC(=O)c1[nH]c2ccccc2c1/C=C1\SC(=S)N(CCCN2CCOCC2)C1=O [Compound 5, (Z)-methyl 3-((3-(3-morpholinopropyl)-4-oxo-2-thioxothiazolidin-5-ylidene)methyl)-1H-indole-2-carboxylate] | 213 to 214 °C | 15 ± 3 µg/mL (≈ 33.7 µM) | 8 ± 0.6 µg/mL (≈ 18 µM) | 8 ± 0.6 µg/mL (≈ 18 µM) | 4 µg/mL (≈ 8.98 µM) | 15 ± 3 µg/mL (≈ 33.7 µM) | 110 ± 10 µg/mL (≈ 247 µM) | 15 ± 3 µg/mL (≈ 33.7 µM) | 30 ± 10 µg/mL (≈ 67.3 µM) | 15 ± 3 µg/mL (≈ 33.7 µM) | 30 ± 10 µg/mL (≈ 67.3 µM) | 15 ± 3 µg/mL (≈ 33.7 µM) | 120 ± 40 µg/mL (≈ 269 µM) | 60 ± 6 µg/mL (≈ 135 µM) | 60 ± 6 µg/mL (≈ 135 µM) | 45 ± 3 µg/mL (≈ 101 µM) | 30 ± 10 µg/mL (≈ 67.3 µM) | 22 ± 5 µg/mL (≈ 49.4 µM) | 30 ± 10 µg/mL (≈ 67.3 µM) | 15 µg/mL (≈ 33.7 µM) | MIC [2]: 4 ± 1 µg/mL (≈ 8.98 µM); MIC [4, 19]: 8 ± 0.6 µg/mL (≈ 18 µM); MIC [10]: 15 ± 9 µg/mL (≈ 33.7 µM); MBC ([11]; Escherichia coli, ATCC35210): 60 ± 6 µg/mL (≈ 135 µM); MIC [11, 23]: 30 ± 10 µg/mL (≈ 67.3 µM); MBC ([12]; Bacillus cereus): 60 ± 6 µg/mL (≈ 135 µM); MIC ([12]; Bacillus cereus, read-out: MIC): 30 ± 10 µg/mL (≈ 67.3 µM); MBC [13]: 60 ± 6 µg/mL (≈ 135 µM); MIC [13]: 30 ± 10 µg/mL (≈ 67.3 µM); MBC [14]: 30 ± 10 µg/mL (≈ 67.3 µM); MIC [14]: 15 ± 9 µg/mL (≈ 33.7 µM); MBC [15]: 60 ± 6 µg/mL (≈ 135 µM); MIC [15]: 30 ± 10 µg/mL (≈ 67.3 µM); MFC [16]: 30 ± 10 µg/mL (≈ 67.3 µM); MIC [16]: 15 ± 3 µg/mL (≈ 33.7 µM) |
| COC(=O)c1[nH]c2ccccc2c1/C=C1\SC(=S)N(CCCCCC(=O)O)C1=O [Compound 1, (Z)-6-(5-((2-(methoxycarbonyl)-1H-indol-3-yl)methylene)-4-oxo-2-thioxothiazolidin-3-yl)hexanoic acid] | 135 to 138 °C | 60 ± 6 µg/mL (≈ 139 µM) | 30 ± 10 µg/mL (≈ 69.4 µM) | 30 ± 10 µg/mL (≈ 69.4 µM) | 15 ± 3 µg/mL (≈ 34.7 µM) | 8 ± 0.6 µg/mL (≈ 18.5 µM) | 4 µg/mL (≈ 9.25 µM) | 15 ± 3 µg/mL (≈ 34.7 µM) | 30 ± 10 µg/mL (≈ 69.4 µM) | 15 ± 3 µg/mL (≈ 34.7 µM) | 30 ± 10 µg/mL (≈ 69.4 µM) | 22 ± 5 µg/mL (≈ 50.9 µM) | 120 ± 40 µg/mL (≈ 277 µM) | 60 ± 6 µg/mL (≈ 139 µM) | 30 ± 10 µg/mL (≈ 69.4 µM) | 22 ± 5 µg/mL (≈ 50.9 µM) | 30 ± 10 µg/mL (≈ 69.4 µM) | 15 µg/mL (≈ 34.7 µM) | 30 ± 10 µg/mL (≈ 69.4 µM) | 22 ± 5 µg/mL (≈ 50.9 µM) | MIC [3]: 4 ± 1 µg/mL (≈ 9.25 µM); MIC [4]: 8 ± 0.6 µg/mL (≈ 18.5 µM); MIC [4, 19]: 8 µg/mL (≈ 18.5 µM); MIC [9]: 15 ± 9 µg/mL (≈ 34.7 µM); MIC [11]: 15 ± 9 µg/mL (≈ 34.7 µM); MBC ([11]; Escherichia coli, ATCC35210): 30 ± 10 µg/mL (≈ 69.4 µM); MIC [11, 23]: 15 µg/mL (≈ 34.7 µM); MIC [12]: 15 ± 9 µg/mL (≈ 34.7 µM); MBC ([12]; Bacillus cereus): 30 ± 10 µg/mL (≈ 69.4 µM); MIC ([12]; Bacillus cereus, read-out: MIC): 15 µg/mL (≈ 34.7 µM); MBC [13]: 60 ± 6 µg/mL (≈ 139 µM); MIC [13]: 22 ± 4 µg/mL (≈ 50.9 µM); MBC [14]: 30 ± 10 µg/mL (≈ 69.4 µM); MIC [14]: 22 ± 5 µg/mL (≈ 50.9 µM); MBC [15]: 60 ± 6 µg/mL (≈ 139 µM); MIC [15]: 22 ± 5 µg/mL (≈ 50.9 µM); MFC [16]: 60 ± 6 µg/mL (≈ 139 µM); MIC [16]: 30 ± 10 µg/mL (≈ 69.4 µM) |
